Reference: article PMC9950205, “Efficacy, safety, and pharmacokinetics of teduglutide in adult Japanese patients with short bowel syndrome and intestinal failure: two phase III studies with an extension” (Surgery Today, 2022)
Where two headings read alike, the source gives them in different places.

Tests used:
Type in all cases: in vivo, human
[1] = test system: adult Japanese patients with SBS-IF; assay: Urine output, change from baseline; details: for 48 h urine output increase from baseline / 48 h urine output percent increase from baseline: 24 weeks
Method: As in the previous STEPS-1 study, patients participating in the core studies (TED-C14-004 and SHP633-306) underwent an optimization (2–8 weeks) and stabilization (4–8 weeks) period before initiation of treatment with teduglutide, during which PS was adjusted with the goal of achieving a stable target urine output of 1.0–2.0 L/day. All participating patients received teduglutide 0.05 mg/kg SC once daily throughout these three studies. PS was adjusted according to an algorithm based on the change from baseline in urine output and other assessments of fluid balance and nutrition status; the PS adjustment algorithm required reductions in PS if the urine output rose more than 10% above baseline. Patients had study visits at weeks 2 and 4, after which visits were held monthly during TED-C14-004 and SHP633-306. During SHP633-307, patients from SHP633-306 had monthly study visits throughout the 24 total months of treatment and then at 3-month intervals thereafter, and patients from TED-C14-004 had visits at 3-month intervals. The end-of-study assessments for SHP633-306 and TED-C14-004 were combined with the first visit of SHP633-307. SHP633-307 is ending soon with the approval of teduglutide in Japan.

[2] = test system: adult Japanese patients with SBS-IF; assay: Plasma citrulline, biomarker of intestinal epithelial mass, change from baseline
Method: Concentrations of plasma citrulline, a biomarker of intestinal epithelial mass, were measured at baseline; weeks 4, 8, 16, and 24; and then every 2 months thereafter up to 30 months of treatment. Patients who continued into SHP633-307 from SHP633-306 had measurements taken at month 12, while those continuing from TED-C14-004 had measurements taken every 3 months.
Efficacy endpoints were defined in an analogous manner to previous pivotal studies. These included a clinically meaningful reduction in weekly PS volume of ≥ 20% [17] measured between baseline and both 20 and 24 weeks for TED-C14-004 and SHP633-306, and a continued reduction in weekly PS volume of ≥ 20% from the baseline in core studies at each scheduled visit until the last visit before the interim data cut-off of SHP633-307. Other efficacy endpoints included changes in absolute and percentage weekly PS volumes from the baseline in the core studies at each study visit, the number of days per week of PS, the number of patients who achieved enteral autonomy at the end of treatment or the data cut-off, and the changes in plasma citrulline levels from baseline in the core studies. The primary efficacy data were derived from patient diaries and compared against investigator-prescribed data captured in electronic case report forms.

[3] = Plasma pharmacokinetics of teduglutide, non-compartmental analysis; details: for half-life / AUC(0-inf) / AUC(0-t) / Cmax / Tmax: human, plasma, 0.05 mg/kg; for half-life: read-out: t½ (converted)
Method: In TED-C14-004 and SHP633-306, blood samples for PK evaluations were taken pre-dose and at 0.25, 0.5, 1, 2, 3, 4, 6, 8, 10, and 12 h post-dose during the first 12 weeks of treatment with teduglutide. In SHP633-307, patients continuing from study TED-C14-004 had blood samples for PK evaluations taken pre-dose and at […], and 1, 2, 3, 4, 6, 8, 10, and 12 h post-dose at the first extension study visit. Patients continuing from SHP633-306 had blood samples taken pre-dose and 1 and 2 h post-dose at the first extension study visit. Blood samples to test for the presence of antibodies to teduglutide were taken at baseline and weeks 12 and 24 in SHP633-306; ≥ 14 h after dosing at baseline and weeks 12 and 24, and then every 6 months thereafter in TED-C14-004; and every 3 months in SHP633-307.
Single-dose PK parameters were estimated using a non-compartmental analysis and included the maximum plasma concentration of teduglutide (Cmax), time to Cmax (tmax), terminal half-life elimination (t½), area under the plasma concentration–time curve (AUC) from time 0 to infinity (AUC0-inf), and AUC from time 0 to the last measurable concentration (AUC0-t).

[4] = 30 months, TED-C14-004, n = 7, mean ± SD
[5] = after 6 months, patients who advanced to SHP633-307 from SHP633-306, n = 4, mean ± SD
[6] = last visit before interim data cut-off of SHP633-307, patients from TED-C14-004, n = 7, mean ± SD
[7] = 24 weeks, SHP633-306, n = 6, mean ± SD
[8] = 24 weeks, TED-C14-004, n = 9, mean ± SD
[9] = interim cut-off of the extension study, patients from SHP633-306, mean ± SD
[10] = interim data cut-off of SHP633-307, patients from TED-C14-004, up to 57 months, n = 7, mean ± SD
[11] = sc, SHP633-306, plasma, 0.05 mg/kg SC once daily, n = 7, mean ± SD
[12] = sc, TED-C14-004, plasma, 0.05 mg/kg SC once daily, n = 8, mean ± SD
[13] = subcutaneous, SHP633-307, patients from TED-C14-004, first extension study visit, mean ± SD

CC[C@H](C)[C@H](NC(=O)[C@H](Cc1ccccc1)NC(=O)[C@H](CC(=O)O)NC(=O)[C@H](CCCNC(=N)N)NC(=O)[C@H](C)NC(=O)[C@H](C)NC(=O)[C@H](CC(C)C)NC(=O)[C@H](CC(N)=O)NC(=O)[C@H](CC(=O)O)NC(=O)[C@H](CC(C)C)NC(=O)[C@@H](NC(=O)[C@@H](NC(=O)[C@H](CC(N)=O)NC(=O)[C@H](CCSC)NC(=O)[C@H](CCC(=O)O)NC(=O)[C@H](CC(=O)O)NC(=O)[C@H](CO)NC(=O)[C@H](Cc1ccccc1)NC(=O)[C@H](CO)NC(=O)CNC(=O)[C@H](CC(=O)O)NC(=O)CNC(=O)[C@@H](N)Cc1c[nH]cn1)[C@@H](C)O)[C@@H](C)CC)C(=O)N[C@@H](CC(N)=O)C(=O)N[C@@H](Cc1c[nH]c2ccccc12)C(=O)N[C@@H](CC(C)C)C(=O)N[C@H](C(=O)N[C@@H](CCC(N)=O)C(=O)N[C@H](C(=O)N[C@@H](CCCCN)C(=O)N[C@H](C(=O)N[C@H](C(=O)N[C@@H](CC(=O)O)C(=O)O)[C@@H](C)O)[C@@H](C)CC)[C@@H](C)O)[C@@H](C)CC [teduglutide]
48 h urine output increase from baseline ([1]; SHP633-306, n = 6, mean ± SD): 212.5 ± 265.9 mL/day | 48 h urine output percent increase from baseline ([1]; SHP633-306, n = 6, mean ± SD): 18.0% ± 23.9% | 48 h urine output increase from baseline ([1]; TED-C14-004, n = 9, mean ± SD): 226.7 ± 555.1 mL/day | 48 h urine output percent increase from baseline ([1]; TED-C14-004, n = 9, mean ± SD): 9.3% ± 22.4% | Urine output increase from baseline [1, 4]: 306.0 ± 735.0 mL/day | Urine output percent increase from baseline [1, 4]: 11.2% ± 24.6% | Urine output increase from baseline [1, 5]: 345.0 ± 217.8 mL/day | Urine output percent increase from baseline [1, 5]: 29.0 ± 21.6% | Mean urine output [1, 6]: 1388.2 ± 507.8 mL/day | Urine output percent change from baseline [1, 6]: −2.0% ± 35.3% | Plasma citrulline increase from baseline [2, 7]: 14.3 ± 10.9 µM | Plasma citrulline percent increase from baseline [2, 7]: 106.3% ± 114.9% | Plasma citrulline increase from baseline [2, 8]: 15.0 ± 17.4 µM | Plasma citrulline percent increase from baseline [2, 8]: 86.9% ± 112.3% | Plasma citrulline increase from baseline [2, 4]: 28.3 ± 24.1 µM | Plasma citrulline percent increase from baseline [2, 4]: 135.0% ± 84.2% | Plasma citrulline increase from baseline [2, 9]: 13.0 ± 5.6 µM | Plasma citrulline percent increase from baseline [2, 9]: 79.1% ± 33.5% | Plasma citrulline increase from baseline [2, 10]: 19.2 ± 18.9 µM | Plasma citrulline percent increase from baseline [2, 10]: 103.6% ± 88.7% | Pre-dose concentrations after multiple dosing ([3]; SHP633-307, patients from SHP633-306, sparse PK sampling, suggests no accumulation): below the lower limit quantification | half-life ([3]; sc, SHP633-306, plasma, 0.05 mg/kg SC once daily, n = 6, mean ± SD): 1.1 ± 0.2 h | AUC(0-inf) [3, 11]: 252 ± 85.4 ng·h/mL | AUC(0-t) [3, 11]: 240 ± 80.7 ng·h/mL | Cmax [3, 11]: 49.5 ± 16.4 ng/mL | Tmax [3, 11]: 3.6 ± 1.6 h | AUC(0-inf) [3, 12]: 204 ± 51.1 ng·h/mL | AUC(0-t) [3, 12]: 201 ± 51.6 ng·h/mL | Cmax [3, 12]: 49.7 ± 19.7 ng/mL | Tmax [3, 12]: 2.6 ± 1 h | half-life [3, 12]: 1.2 ± 0.7 h | AUC(0-inf) [3, 13]: 209 ± 72.7 ng·h/mL | AUC(0-t) [3, 13]: 200 ± 71.6 ng·h/mL | Cmax [3, 13]: 54.1 ± 18.7 ng/mL | Tmax [3, 13]: 2.1 ± 0.4 h
